These results are taken from US20050004186A1, “MEK inhibiting compounds” (Pfizer Inc, priority 2002, published 2005).

One may read the IC50 as the concentration that inhibits the measured activity by half. A low value points to greater potency in that assay.

This assay has as its system MEK. Put plainly: Cellular assay for measuring MEK inhibition, C26CPA1 (inhibition of ERK phosphorylation in C26 cells). Format: cell-based, murine. Conditions: for C26CPA1 % Inhibition @ 0.1 μM / C26CPA1 % Inhibition @ 1 μM: C26 cells; for IC50: murine colon 26 (C26) carcinoma cells, one hour at 37 C. The protocol:
Cellular Assay for Measuring MEK Inhibition
MEK inhibitors were evaluated by determining their ability to inhibit phosphorylation of MAP kinase (ERK) in murine colon 26 (C26) carcinoma cells. Since ERK1 and ERK2 represent the only known substrates for MEK1 and MEK2, the measurement of inhibition of ERK phosphorylation in cells provides direct read out of cellular MEK inhibition by the compounds of the invention. Detection of phosphorylation of ERK was carried out either by Western blot or ELISA format. Briefly, the assays involve treatment of exponentially growing C26 cells with varying concentrations of the test compound (or vehicle control) for one hour at 37≡ C. For Western blot assay, cells were rinsed free of compound/vehicle and lysed in a solution containing 70 mM NaCl, 50 mM glycerol phosphate, 10 mM HEPES, […], 1% Triton X-100, 1 mM Na3VO4, 100 μM PMSF, 10 μM leupeptin and 10 μM pepstatin. Supernatants were then subjected to gel electrophoresis and hybridized to a primary antibody recognizing dually phosphorylated ERK1 and ERK2. To evaluate total MAPK levels, blots were subsequently ‘stripped’ and re-probed with a 1:1 mixture of polyclonal antibodies recognizing unphosphorylated ERK1 and ERK2. For pERK ELISA assay, pERK TiterZyme Enzyme immunometric Assay kits were acquired from Assay Designs, Inc (Ann Arbor, Mich.). Briefly, cells were harvested in lysis solution containing 50 mM β-glycerophosphate, 10 mM HEPES, pH7.4, 70 mM NaCl, 2 mM EDTA and 1% SDS and protein lysates were diluted 1:15 with supplied Assay buffer prior to the execution of the assay. The subsequent steps were carried out essentially as recommended by the manufacturer.

Each structure is given as a SMILES string. Several values for one entry are separate records, joined by “and”; a condition that tells them apart may be missing. Identical values can stand only once.

As to `CC(Nc1nnc(-c2ccc(F)c(F)c2Nc2ccc(I)cc2F)o1)C(C)(C)C` (centres unmarked) [Example 49, {5-[3,4-Difluoro-2-(2-fluoro-4-iodo-phenylamino)-phenyl]-[1,3,4]oxadiazol-2-yl}-(1,2,2-trimethyl-propyl)-amine], the “C26CPA1 % Inhibition @ 0.1 μM” value was found to be 0% and the “C26CPA1 % Inhibition @ 1 μM” value was determined as 0%. As to `CCC(C)CNc1nnc(-c2ccc(F)c(F)c2Nc2ccc(I)cc2F)o1` (centres unmarked) [Example 50, {5-[3,4-Difluoro-2-(2-fluoro-4-iodo-phenylamino)-phenyl]-[1,3,4]oxadiazol-2-yl}-(2-methyl-butyl)-amine], the “C26CPA1 % Inhibition @ 0.1 μM” value was determined as 0% and the “C26CPA1 % Inhibition @ 1 μM” value came out at 15.2%. Consider `Fc1cc(I)ccc1Nc1c(-c2nnc(NC3CC4CCC3C4)o2)ccc(F)c1F` (centres unmarked) [Example 51, Bicyclo[2,2,1]hept-2-yl-{5-[3,4-difluoro-2-(2-fluoro-4-iodo-phenylamino)-phenyl]-[1,3,4]oxadiazol-2-yl}-amine], for which the “C26CPA1 % Inhibition @ 0.1 μM” value is recorded as 13.1% and the “C26CPA1 % Inhibition @ 1 μM” value was 96%.

In turn, `Cn1cccc1CCNc1nnc(-c2ccc(F)c(F)c2Nc2ccc(I)cc2F)o1` [Example 52, {5-[3,4-Difluoro-2-(2-fluoro-4-iodo-phenylamino)-phenyl]-[1,3,4]oxadiazol-2-yl}-[2-(1-methyl-1H-pyrrol-2-yl)-ethyl]-amine] registered a half-inhibitory concentration (IC50) of 86 nM. Still for that read-out and setting: under `Cn1cnc(CCNc2nnc(-c3ccc(F)c(F)c3Nc3ccc(I)cc3F)o2)c1` [Example 53, {5-[3,4-Difluoro-2-(2-fluoro-4-iodo-phenylamino)-phenyl]-[1,3,4]oxadiazol-2-yl}-[2-(1-methyl-1H-imidazol-4-yl)-ethyl]-amine] stands 230 nM. Consider `Fc1cc(I)ccc1Nc1c(-c2nnc(N3CCCC3CN3CCCC3)o2)ccc(F)c1F` (centres unmarked) [Example 54, {2,3-Difluoro-6-[5-(2-pyrrolidin-1-ylmethyl-pyrrolidin-1-yl)-[1,3,4]oxadiazol-2-yl]-phenyl}-(2-fluoro-4-iodo-phenyl)-amine], for which the “C26CPA1 % Inhibition @ 0.1 μM” value was 21.7% and the “C26CPA1 % Inhibition @ 1 μM” value was 30.8%. With `COCC(C)Nc1nnc(-c2ccc(F)c(F)c2Nc2ccc(I)cc2F)o1` (centres unmarked) [Example 55, {5-[3,4-Difluoro-2-(2-fluoro-4-iodo-phenylamino)-phenyl]-[1,3,4]oxadiazol-2-yl}-(2-methoxy-1-methyl-ethyl)-amine], the “C26CPA1 % Inhibition @ 0.1 μM” value came out at 23.9% and the “C26CPA1 % Inhibition @ 1 μM” value is 25.2%. The molecule `CCOCCCNc1nnc(-c2ccc(F)c(F)c2Nc2ccc(I)cc2F)o1` [Example 56, {5-[3,4-Difluoro-2-(2-fluoro-4-iodo-phenylamino)-phenyl]-[1,3,4]oxadiazol-2-yl}-(3-ethoxy-propyl)-amine] showed a half-maximal inhibitory concentration (IC50) of 44 nM. That is a double-digit nanomolar value. Regarding `O=C1OCCC1Nc1nnc(-c2ccc(F)c(F)c2Nc2ccc(I)cc2F)o1` (centres unmarked) [Example 57, 3-{5-[3,4-Difluoro-2-(2-fluoro-4-iodo-phenylamino)-phenyl]-[1,3,4]oxadiazol-2-ylamino}-dihydro-furan-2-one], the “C26CPA1 % Inhibition @ 0.1 μM” value is on record as 31.3% and the “C26CPA1 % Inhibition @ 1 μM” value is given as 51.8%.

`CCOC(=O)CCNc1nnc(-c2ccc(F)c(F)c2Nc2ccc(I)cc2F)o1` [Example 58, 3-{5-[3,4-Difluoro-2-(2-fluoro-4-iodo-phenylamino)-phenyl]-[1,3,4]oxadiazol-2-ylamino}-propionic Acid Ethyl Ester]: the “C26CPA1 % Inhibition @ 0.1 μM” value amounted to 0% and the “C26CPA1 % Inhibition @ 1 μM” value came out at 17.8%. On to `Cc1cccc(C)c1OCC(C)Nc1nnc(-c2ccc(F)c(F)c2Nc2ccc(I)cc2F)o1` (centres unmarked) [Example 59, {5-[3,4-Difluoro-2-(2-fluoro-4-iodo-phenylamino)-phenyl]-[1,3,4]oxadiazol-2-yl}-[2-(2,6-dimethyl-phenoxy)-1-methyl-ethyl]-amine], for which the “C26CPA1 % Inhibition @ 0.1 μM” value was found to be 0% and the “C26CPA1 % Inhibition @ 1 μM” value was 0%.

As for `CCN(CC)C1CCN(c2nnc(-c3ccc(F)c(F)c3Nc3ccc(I)cc3F)o2)C1` (centres unmarked) [Example 60, (1-{5-[3,4-Difluoro-2-(2-fluoro-4-iodo-phenylamino)-phenyl]-[1,3,4]oxadiazol-2-yl}-pyrrolidin-3-yl)-diethyl-amine], the “C26CPA1 % Inhibition @ 0.1 μM” value is reported as 8.2% and the “C26CPA1 % Inhibition @ 1 μM” value is reported as 68%. As for `CN1CCCN(c2nnc(-c3ccc(F)c(F)c3Nc3ccc(I)cc3F)o2)CC1` [Example 61, {2,3-Difluoro-6-[5-(4-methyl-[1,4]diazepan-1-yl)-[1,3,4]oxadiazol-2-yl]-phenyl}-(2-fluoro-4-iodo-phenyl)-amine], the IC50 was 850 nM. In the case of `CN1CCCC1CCNc1nnc(-c2ccc(F)c(F)c2Nc2ccc(I)cc2F)o1` (centres unmarked) [Example 62, {5-[3,4-Difluoro-2-(2-fluoro-4-iodo-phenylamino)-phenyl]-[1,3,4]oxadiazol-2-yl}-[2-(1-methyl-pyrrolidin-2-yl)-ethyl]-amine], the “C26CPA1 % Inhibition @ 0.1 μM” value was 53.7% and the “C26CPA1 % Inhibition @ 1 μM” value is recorded as 98.5%. In the case of `Fc1cc(I)ccc1Nc1c(-c2nnc(NCCCCN3CCCC3)o2)ccc(F)c1F` [Example 63, {5-[3,4-Difluoro-2-(2-fluoro-4-iodo-phenylamino)-phenyl]-[1,3,4]oxadiazol-2-yl}-(4-pyrrolidin-1-yl-butyl)-amine], it took 23 nM to reach half-maximal inhibition (IC50). In the case of `CCN(CC)CCCC(C)Nc1nnc(-c2ccc(F)c(F)c2Nc2ccc(I)cc2F)o1` (centres unmarked) [Example 64, N*4*-{5-[3,4-Difluoro-2-(2-fluoro-4-iodo-phenylamino)-phenyl]-[1,3,4]oxadiazol-2-yl}-N*1* ,N*1*-diethyl-pentane-1,4-diamine], the “C26CPA1 % Inhibition @ 0.1 μM” value amounted to 0% and the “C26CPA1 % Inhibition @ 1 μM” value was determined as 18.2%. As to `Fc1cc(I)ccc1Nc1c(-c2nnc(NCC3CCCO3)o2)ccc(F)c1F` (centres unmarked) [Example 65, {5-[3,4-Difluoro-2-(2-fluoro-4-iodo-phenylamino)-phenyl]-[1,3,4]oxadiazol-2-yl}-(tetrahydro-furan-2-ylmethyl)-amine], the “C26CPA1 % Inhibition @ 0.1 μM” value stood at 0% and the “C26CPA1 % Inhibition @ 1 μM” value was 12.7%. For the molecule `COCCN(CCOC)c1nnc(-c2ccc(F)c(F)c2Nc2ccc(I)cc2F)o1` [Example 66, {5-[3,4-Difluoro-2-(2-fluoro-4-iodo-phenylamino)-phenyl]-[1,3,4]oxadiazol-2-yl}-bis-(2-methoxy-ethyl)-amine], the “C26CPA1 % Inhibition @ 0.1 μM” value stood at 0% and the “C26CPA1 % Inhibition @ 1 μM” value turned out to be 12.5%. With `CCc1ccc(Nc2c(-c3nnc(N4CCCC4)o3)ccc(F)c2F)c(F)c1` [Example 75, [2,3-Difluoro-6-(5-pyrrolidin-1-yl-1,3,4-oxadiazol-2-yl)-phenyl]-(4-ethyl-2-fluoro-phenyl)-amine], the “C26CPA1 % Inhibition @ 1 μM” value was 39.1% and 30.6%. In the case of `C=CCN(CC=C)c1nnc(-c2ccc(F)c(F)c2Nc2ccc(CC)cc2F)o1` [Example 83, Diallyl-{5-[2-(4-ethyl-2-fluoro-phenylamino)-3,4-difluoro-phenyl]-1,3,4-oxadiazol-2-yl}-amine], the “C26CPA1 % Inhibition @ 0.1 μM” value came to 65.6% and the “C26CPA1 % Inhibition @ 1 μM” value came to 77.9%. For `CCc1ccc(Nc2c(-c3nnc(N(C)CCCN(C)C)o3)ccc(F)c2F)c(F)c1` [Example 93, N^1-{5-[2-(4-Ethyl-2-fluoro-phenylamino)-3,4-difluoro-phenyl]-1,3,4-oxadiazol-2-yl}-N1,N>3,N>3-trimethyl-propane-1.3-diamine], the “C26CPA1 % Inhibition @ 0.1 μM” value amounted to 0% and the “C26CPA1 % Inhibition @ 1 μM” value was 31.9%. In the case of `CCc1ccc(Nc2c(-c3nnc(N(CCCN(C)C)CCCN(C)C)o3)ccc(F)c2F)c(F)c1` [Example 96, N^1-(3-Dimethylamino-propyl)-N^1-{5-[2-(4-ethyl-2-fluoro-phenylamino)-3,4-difluoro-phenyl]-1,3,4-oxadiazol-2-yl}-N>3,N>3-dimethyl-propane-1,3-diamine], the “C26CPA1 % Inhibition @ 0.1 μM” value turned out to be 54% and the “C26CPA1 % Inhibition @ 1 μM” value is 55%. `CCCN(CC1CC1)c1nnc(-c2ccc(F)c(F)c2Nc2ccc(CC)cc2F)o1` [Example 100, Cyclopropylmethyl-{5-[2-(4-ethyl-2-fluoro-phenylamino)-3,4-difluoro-phenyl]-1,3,4-oxadiazol-2-yl}-propyl-amine]: the “C26CPA1 % Inhibition @ 0.1 μM” value amounted to 37.1% and the “C26CPA1 % Inhibition @ 1 μM” value stood at 40.5%.

For the molecule `CCc1ccc(Nc2c(-c3nnc(N4CCN(CC)CC4)o3)ccc(F)c2F)c(F)c1` [Example 101, (4-Ethyl-2-fluoro-phenyl)-{6-[5-(4-ethyl-piperazin-1-yl)-1,3,4-oxadiazol-2-yl]-2,3-difluoro-phenyl}-amine], the “C26CPA1 % Inhibition @ 0.1 μM” value is 41.2% and the “C26CPA1 % Inhibition @ 1 μM” value came to 47.1%. On the same counts, the results for `CCc1ccc(Nc2c(-c3nnc(N(C)C4CCN(C)C4)o3)ccc(F)c2F)c(F)c1` (centres unmarked) [Example 102, {5-[2-(4-Ethyl-2-fluoro-phenylamino)-3,4-difluoro-phenyl]-1,3,4-oxadiazol-2-yl}-methyl-(1-methyl-pyrrolidin-3-yl)-amine] are 42.4% and 54.6%.
